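Grown in 96-well plates, cells were treated for 48 hours with each compound at five concentrations. Insufficient inhibition: endpoint recorded as highest concentration tested. At the GI50, growth is halved.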 Active and inactive are the calls of the source. Cut-off read from the data, not from the text of the source: active = GI50 up to about 1.1 µM and inactive = higher.
What was measured:
Assay in all cases: NCI tumour cell line growth inhibition, 48 h
SR = test system: SR
786-0 = test system: 786-0
SN12C = test system: SN12C
MOLT-4 = test system: MOLT-4
HOP-62 = test system: HOP-62
SF-539 = test system: SF-539
SF-295 = test system: SF-295
M14 = test system: M14
IGROV-1 = test system: IGROV-1
SK-MEL-5 = test system: SK-MEL-5
TK-10 = test system: TK-10
A549 = test system: A549
EKVX = test system: EKVX
RXF 393 = test system: RXF 393
HT-29 = test system: HT-29
OVCAR-8 = test system: OVCAR-8
NCI-H23 = test system: NCI-H23
MDA-MB-435 = test system: MDA-MB-435
UACC-62 = test system: UACC-62
U-251 = test system: U-251

Measured: GI50

O=C(CSC1=NC(=O)C2(NN1)c1ccccc1-c1ccccc12)NC(=S)Nc1ccccc1
inactive: SR 6.03 µM | 786-0 > 10 µM | SN12C > 10 µM | MOLT-4 9.14 µM | HOP-62 > 10 µM | SF-539 > 10 µM | SF-295 > 10 µM | M14 > 10 µM | IGROV-1 > 10 µM | SK-MEL-5 > 10 µM | TK-10 > 10 µM | A549 > 10 µM | EKVX 4.04 µM | RXF 393 > 10 µM | HT-29 > 10 µM | OVCAR-8 > 10 µM | NCI-H23 > 10 µM | MDA-MB-435 > 10 µM | UACC-62 > 10 µM

CC(C)(C)/C(=N\Nc1nc2ccccc2[nH]1)c1ccccn1
inactive: SR > 100 µM | 786-0 > 100 µM | SN12C > 100 µM | MOLT-4 59.6 µM | HOP-62 > 100 µM | SF-539 > 100 µM | M14 61 µM | IGROV-1 80.7 µM | U-251 > 100 µM | SK-MEL-5 87.9 µM | TK-10 24.7 µM | A549 > 100 µM | RXF 393 > 100 µM | HT-29 26.2 µM | OVCAR-8 > 100 µM | NCI-H23 82.8 µM | MDA-MB-435 > 100 µM | UACC-62 > 100 µM

N#C/C(=C\c1cn(Cc2ccccc2)c2ccccc12)c1nn(-c2ccccc2)c(N)c1C#N
inactive: SR 24.7 µM | 786-0 7.83 µM | SN12C 15.3 µM | MOLT-4 26.1 µM | SF-539 3.11 µM | SF-295 11.1 µM | M14 20.4 µM | IGROV-1 12.8 µM | U-251 13.6 µM | SK-MEL-5 11 µM | TK-10 15.8 µM | A549 11.2 µM | EKVX 8.07 µM | RXF 393 4.81 µM | HT-29 11.3 µM | OVCAR-8 10.1 µM | NCI-H23 14.2 µM | MDA-MB-435 20.6 µM | UACC-62 10.8 µM

CCCCCCCC/C=C\CCCCCCC(F)C(=O)O (stereo not drawn)
inactive: SR > 12.5 µM | 786-0 > 12.5 µM | SN12C > 12.5 µM | MOLT-4 > 12.5 µM | HOP-62 > 12.5 µM | SF-539 > 12.5 µM | SF-295 > 12.5 µM | M14 > 12.5 µM | IGROV-1 > 12.5 µM | U-251 > 12.5 µM | SK-MEL-5 > 12.5 µM | TK-10 > 12.5 µM | A549 > 12.5 µM | EKVX 2.25 µM | RXF 393 > 12.5 µM | HT-29 > 12.5 µM | OVCAR-8 > 12.5 µM | NCI-H23 > 12.5 µM | MDA-MB-435 > 12.5 µM

O=C(Nc1nc(C23CC4CC(CC(C4)C2)C3)cs1)c1c(O)c2ccccc2[nH]c1=O
inactive: SR > 100 µM | 786-0 > 100 µM | SN12C > 100 µM | MOLT-4 > 100 µM | HOP-62 > 100 µM | SF-539 > 100 µM | SF-295 > 100 µM | IGROV-1 > 100 µM | U-251 > 100 µM | SK-MEL-5 > 100 µM | TK-10 > 100 µM | A549 > 100 µM | EKVX > 100 µM | RXF 393 53.6 µM | HT-29 > 100 µM | OVCAR-8 > 100 µM | NCI-H23 > 100 µM | MDA-MB-435 > 100 µM

C[C@]12C(=O)OC[C@H](c3ccccc3)N1C(=O)N(Cc1ccccc1)[C@@H]2CO
inactive: SR > 100 µM | 786-0 > 100 µM | SN12C > 100 µM | MOLT-4 > 100 µM | HOP-62 > 100 µM | SF-539 > 100 µM | SF-295 > 100 µM | M14 > 100 µM | IGROV-1 > 100 µM | SK-MEL-5 > 100 µM | TK-10 > 100 µM | A549 > 100 µM | EKVX > 100 µM | RXF 393 > 100 µM | HT-29 > 100 µM | OVCAR-8 > 100 µM | MDA-MB-435 > 100 µM | UACC-62 > 100 µM

Nc1ncnc2ccc(Sc3ccc4ncnc(N)c4c3)cc12
inactive: SR > 100 µM | 786-0 > 100 µM | SN12C > 100 µM | MOLT-4 > 100 µM | HOP-62 > 100 µM | SF-539 > 100 µM | SF-295 > 100 µM | M14 > 100 µM | IGROV-1 > 100 µM | U-251 > 100 µM | SK-MEL-5 > 100 µM | TK-10 > 100 µM | A549 > 100 µM | EKVX > 100 µM | RXF 393 > 100 µM | HT-29 > 100 µM | OVCAR-8 > 100 µM | MDA-MB-435 > 100 µM | UACC-62 > 100 µM

COc1ccc2c(O)c(S(=O)(=O)c3ccc(C)cc3)c(=O)oc2c1OC
inactive: SR > 100 µM | 786-0 > 100 µM | SN12C > 100 µM | MOLT-4 > 100 µM | SF-539 > 100 µM | SF-295 > 100 µM | M14 > 100 µM | IGROV-1 > 100 µM | U-251 > 100 µM | SK-MEL-5 > 100 µM | TK-10 > 100 µM | A549 > 100 µM | EKVX > 100 µM | RXF 393 > 100 µM | HT-29 > 100 µM | OVCAR-8 > 100 µM | NCI-H23 > 100 µM | MDA-MB-435 > 100 µM | UACC-62 > 100 µM

CC(C)CC1C(=O)NCCC(NC(=O)C(N)Cc2ccc(O)cc2)C(=O)NC(Cc2ccccc2)C(=O)NC(Cc2ccccc2)NC1=O (stereo not drawn)
inactive: SR > 100 µM | 786-0 > 100 µM | SN12C > 100 µM | MOLT-4 > 100 µM | HOP-62 > 100 µM | SF-539 > 100 µM | SF-295 > 100 µM | M14 > 100 µM | IGROV-1 > 100 µM | U-251 > 100 µM | SK-MEL-5 17.9 µM | TK-10 > 100 µM | A549 > 100 µM | EKVX > 100 µM | RXF 393 > 100 µM | HT-29 > 100 µM | OVCAR-8 > 100 µM | NCI-H23 > 100 µM | MDA-MB-435 > 100 µM | UACC-62 > 100 µM

CS(=O)(=O)c1ccc(C2=C(c3ccccc3)C(=O)OC2)cc1 [ROFECOXIB]
inactive: SR > 100 µM | 786-0 > 100 µM | SN12C > 100 µM | MOLT-4 > 100 µM | HOP-62 > 100 µM | SF-539 > 100 µM | SF-295 > 100 µM | M14 > 100 µM | IGROV-1 > 100 µM | U-251 > 100 µM | SK-MEL-5 > 100 µM | TK-10 > 100 µM | A549 > 100 µM | EKVX > 100 µM | RXF 393 > 100 µM | OVCAR-8 > 100 µM | NCI-H23 > 100 µM | MDA-MB-435 > 100 µM | UACC-62 > 100 µM

— ChEMBL document CHEMBL1201862, “PubChem BioAssay data set” (2004)
